Calls of active or inactive are those of the source.
How the values were obtained:
[1] = luciferase reporter signal suppression in cells – H4 neuroglioma cells, luminescence, dose response (AID 1990); assay type: functional, cell-based
[2] = Luminescence Cell-Based Dose Response HTS to Identify Inhibitors of 5'UTR Stem-Loop Driven Prion Protein mRNA Translation in H4 Neuroglioblastoma Cells. [Related pubchem assays: 1827 (Project Summary), 1813 (Primary HTS)]; assay type: functional
[3] = restored growth of temperature-sensitive Burl-1 yeast – whole organism, S. cerevisiae, Burl-1 ts mutant, luminescence, counter-screen for SUMOylation pathway inhibitor project, dose response (AID 463199); assay type: functional
[4] = alpha-synuclein stem-loop luciferase translation blockers – H4 neuroglioma cells, luminescence, confirmation (AID 1988); assay type: functional, cell-based
H9c2 = test: cells; assay type: functional, cell-based; conditions: Rattus norvegicus, H9c2, Myocardium;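 further: confirmatory concentration-response retest of ultra-high-throughput screening hits for modulation of myocardial damage; cell death induced by hydrogen peroxide oxidative stress; compound pretreatment for 60 min then peroxide exposure for 2 h; potency is for protecting the cells against peroxide damage rather than for killing them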
[5] = biological target: Tyrosine-protein phosphatase non-receptor type 12 (Homo sapiens, UniProt Q05209); test: SAR Selectivity Analysis of small molecule inhibitors of PEST using pCAP in a fluorescence assay. [Related pubchem assays (depositor defined):AID1779, AID1784, AID2135]; assay type: functional
[6] = biological target: T1, Tyrosine-protein phosphatase non-receptor type 7 (Homo sapiens, UniProt P35236); test: inhibition of hematopoietic tyrosine phosphatase HePTP – biochemical, set 2, SAR follow-up (AID 449736); assay type: functional
T1 sequence (P35236 whole entry): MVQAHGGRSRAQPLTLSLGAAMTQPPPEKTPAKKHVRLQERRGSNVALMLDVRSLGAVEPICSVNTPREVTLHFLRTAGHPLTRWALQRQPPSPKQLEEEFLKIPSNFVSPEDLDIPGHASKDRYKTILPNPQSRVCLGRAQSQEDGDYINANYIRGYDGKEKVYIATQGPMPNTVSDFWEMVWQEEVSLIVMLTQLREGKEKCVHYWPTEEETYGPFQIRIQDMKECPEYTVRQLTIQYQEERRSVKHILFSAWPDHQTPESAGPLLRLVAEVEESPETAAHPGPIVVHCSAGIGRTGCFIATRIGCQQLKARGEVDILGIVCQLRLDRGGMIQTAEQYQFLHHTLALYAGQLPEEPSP

[7] = biological target: T2, Tyrosine-protein phosphatase non-receptor type 22 (Homo sapiens, UniProt Q9Y2R2); test: inhibition of lymphoid tyrosine phosphatase LYP – biochemical, pCAP fluorogenic substrate, fluorescence, set 3, SAR follow-up (AID 449727); assay type: functional
T2 sequence (Q9Y2R2 whole entry): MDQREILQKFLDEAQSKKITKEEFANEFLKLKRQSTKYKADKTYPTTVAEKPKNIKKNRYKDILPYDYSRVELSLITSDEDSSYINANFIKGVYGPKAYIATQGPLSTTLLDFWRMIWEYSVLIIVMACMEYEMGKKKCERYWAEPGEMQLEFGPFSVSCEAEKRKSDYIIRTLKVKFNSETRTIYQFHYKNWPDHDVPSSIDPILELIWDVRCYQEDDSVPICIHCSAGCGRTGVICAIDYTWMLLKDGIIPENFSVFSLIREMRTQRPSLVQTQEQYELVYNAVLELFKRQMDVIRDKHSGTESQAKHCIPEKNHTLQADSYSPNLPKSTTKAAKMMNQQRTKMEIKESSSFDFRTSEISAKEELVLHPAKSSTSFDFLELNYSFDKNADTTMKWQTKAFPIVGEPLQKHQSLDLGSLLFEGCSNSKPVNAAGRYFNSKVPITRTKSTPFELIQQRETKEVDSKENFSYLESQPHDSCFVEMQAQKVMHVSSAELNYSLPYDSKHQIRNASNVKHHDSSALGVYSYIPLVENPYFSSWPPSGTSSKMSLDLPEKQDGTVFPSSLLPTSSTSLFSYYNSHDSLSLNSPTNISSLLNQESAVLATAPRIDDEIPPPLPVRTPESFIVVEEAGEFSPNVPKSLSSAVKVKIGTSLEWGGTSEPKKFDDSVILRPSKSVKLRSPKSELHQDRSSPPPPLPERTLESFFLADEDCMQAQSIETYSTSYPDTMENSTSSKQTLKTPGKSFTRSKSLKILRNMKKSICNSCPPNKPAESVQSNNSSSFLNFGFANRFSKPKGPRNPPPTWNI

[8] = biological target: T2, Tyrosine-protein phosphatase non-receptor type 22; test: SAR LYP1 Fluorescent Assay using OMFP substrate for In Vitro dose response studies - Set 3. [Related pubchem assays (depositor defined):AID1779, AID1784, AID2140, AID2686]; assay type: functional
[9] = biological target: T3, G-protein coupled receptor 35 (Homo sapiens, UniProt Q9HC97); test: inhibition of zaprinast-stimulated GPR35 beta-arrestin translocation – imaging, U2OS, beta-arrestin-GFP, zaprinast agonist, primary screen (AID 2058); assay type: functional;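 further: antagonist potency meaning inhibition of agonist-induced arrestin redistribution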
[10] = biological target: T3, G-protein coupled receptor 35; test: SAR Analysis for the identification of Selective Antagonists of ERK1/2 Activity in GPR35-Overexpressing U2OS Cells. [Related pubchem assays: 2079, 2058 ]; assay type: functional, cell-based
[11] = biological target: T4, G-protein coupled receptor 55 (Homo sapiens, UniProt Q9Y2T6); test: selective activators of receptor GPR55 – imaging, U2OS cells, beta-arrestin-GFP redistribution, primary screen (AID 1961); assay type: functional
[12] = biological target: T4, G-protein coupled receptor 55; test: blockers of GPR55 signalling, imaged – imaging, image-based, counter-screen for GPR35 antagonist project, SAR follow-up (AID 2397); assay type: functional
[13] = biological target: T5, Replicative DNA helicase DnaB (Mycobacterium tuberculosis, UniProt P9WMR3); test: DnaB intein splicing inhibitors, dose response, biochemical, cell-free fluorescence (AID 449749); assay type: functional
T5 sequence (P9WMR3 whole entry): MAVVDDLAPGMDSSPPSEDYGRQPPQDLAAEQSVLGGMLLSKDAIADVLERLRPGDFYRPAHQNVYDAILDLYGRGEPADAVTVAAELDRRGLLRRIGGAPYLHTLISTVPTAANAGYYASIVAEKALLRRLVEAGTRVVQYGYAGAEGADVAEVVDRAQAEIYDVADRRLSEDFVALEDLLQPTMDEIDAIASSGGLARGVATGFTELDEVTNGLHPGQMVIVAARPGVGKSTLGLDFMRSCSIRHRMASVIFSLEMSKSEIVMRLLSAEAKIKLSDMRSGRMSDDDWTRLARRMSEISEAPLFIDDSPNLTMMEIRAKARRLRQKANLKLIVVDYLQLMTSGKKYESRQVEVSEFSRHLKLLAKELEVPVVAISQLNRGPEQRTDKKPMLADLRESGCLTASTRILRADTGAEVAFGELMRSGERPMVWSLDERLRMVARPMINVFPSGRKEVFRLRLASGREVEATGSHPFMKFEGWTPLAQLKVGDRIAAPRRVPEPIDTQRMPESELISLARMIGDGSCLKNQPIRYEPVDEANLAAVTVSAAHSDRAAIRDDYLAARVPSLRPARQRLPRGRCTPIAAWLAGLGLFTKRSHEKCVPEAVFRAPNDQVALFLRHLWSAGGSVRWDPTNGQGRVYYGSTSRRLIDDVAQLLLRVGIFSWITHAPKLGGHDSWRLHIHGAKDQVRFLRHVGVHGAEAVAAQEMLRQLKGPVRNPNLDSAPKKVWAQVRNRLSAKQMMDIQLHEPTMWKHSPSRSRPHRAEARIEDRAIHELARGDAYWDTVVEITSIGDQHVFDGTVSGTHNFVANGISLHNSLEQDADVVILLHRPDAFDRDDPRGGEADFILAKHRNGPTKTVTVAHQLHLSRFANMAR

Coagulation factor XII = biological target: T6, Coagulation factor XII (Homo sapiens, UniProt P00748); test: activated coagulation factor XII inhibitor potency, concentration-effect curve, cell-free (AID 716); assay type: functional
T6 sequence (P00748 whole entry): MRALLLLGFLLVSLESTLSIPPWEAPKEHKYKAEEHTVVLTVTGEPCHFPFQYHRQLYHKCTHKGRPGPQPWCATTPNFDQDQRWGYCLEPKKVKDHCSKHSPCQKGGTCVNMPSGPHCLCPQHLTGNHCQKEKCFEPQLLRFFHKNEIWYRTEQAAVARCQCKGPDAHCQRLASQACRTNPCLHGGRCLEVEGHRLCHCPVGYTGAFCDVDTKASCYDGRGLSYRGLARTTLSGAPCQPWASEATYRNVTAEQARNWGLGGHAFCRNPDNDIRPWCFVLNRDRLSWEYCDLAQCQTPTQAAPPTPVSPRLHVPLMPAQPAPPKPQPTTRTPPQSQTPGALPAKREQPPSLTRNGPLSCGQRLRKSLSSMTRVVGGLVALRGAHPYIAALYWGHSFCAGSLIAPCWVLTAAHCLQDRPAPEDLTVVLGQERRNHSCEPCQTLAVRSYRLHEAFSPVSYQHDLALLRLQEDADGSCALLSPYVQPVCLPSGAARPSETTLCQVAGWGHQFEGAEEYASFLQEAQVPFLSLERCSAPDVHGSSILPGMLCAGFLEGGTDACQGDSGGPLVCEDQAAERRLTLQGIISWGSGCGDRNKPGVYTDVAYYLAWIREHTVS

CAAX prenyl protease 1 = CAAX prenyl protease 1 (Saccharomyces cerevisiae S288c, UniProt P47154); test: yeast CAAX protease Ste24 inhibition – biochemical, S. cerevisiae, plate reader, cherry-pick, dose response (AID 488815)
Trypsin = Trypsin (Sus scrofa, UniProt P00761); test: trypsin protease activity blockade – biochemical, quenched peptide fluorescence, cherry-pick, selectivity assay for Rce1 protease inhibitor project, dose response (AID 488789)
CAAX prenyl protease 2 [14] = biological target: T7, CAAX prenyl protease 2 (Homo sapiens, UniProt Q9Y256); test: inhibition of Ras-converting CAAX protease Rce1 – biochemical, yeast membranes, quenched-peptide fluorescence, cherry-pick, dose response (AID 588849)
T7 sequence (Q9Y256 whole entry): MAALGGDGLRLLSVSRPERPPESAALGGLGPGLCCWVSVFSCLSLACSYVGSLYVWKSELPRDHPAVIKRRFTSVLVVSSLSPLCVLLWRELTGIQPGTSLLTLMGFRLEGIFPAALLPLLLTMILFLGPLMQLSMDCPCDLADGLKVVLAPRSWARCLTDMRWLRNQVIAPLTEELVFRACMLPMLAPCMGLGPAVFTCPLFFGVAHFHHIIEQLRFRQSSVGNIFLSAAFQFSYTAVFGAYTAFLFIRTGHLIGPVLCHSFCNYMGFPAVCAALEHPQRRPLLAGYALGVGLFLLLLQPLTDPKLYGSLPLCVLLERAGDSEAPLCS

Protein RecA = biological target: T8, Protein RecA (Mycobacterium tuberculosis, UniProt P9WHJ3); test: Fluorescence Cell-Free Homogeneous Dose Retest to Identify Inhibitors of RecA-Intein Splicing Activity. [Related pubchem assays (depositor defined):AID2097, AID2223, AID489010, AID492950]; assay type: functional
T8 sequence (P9WHJ3 whole entry): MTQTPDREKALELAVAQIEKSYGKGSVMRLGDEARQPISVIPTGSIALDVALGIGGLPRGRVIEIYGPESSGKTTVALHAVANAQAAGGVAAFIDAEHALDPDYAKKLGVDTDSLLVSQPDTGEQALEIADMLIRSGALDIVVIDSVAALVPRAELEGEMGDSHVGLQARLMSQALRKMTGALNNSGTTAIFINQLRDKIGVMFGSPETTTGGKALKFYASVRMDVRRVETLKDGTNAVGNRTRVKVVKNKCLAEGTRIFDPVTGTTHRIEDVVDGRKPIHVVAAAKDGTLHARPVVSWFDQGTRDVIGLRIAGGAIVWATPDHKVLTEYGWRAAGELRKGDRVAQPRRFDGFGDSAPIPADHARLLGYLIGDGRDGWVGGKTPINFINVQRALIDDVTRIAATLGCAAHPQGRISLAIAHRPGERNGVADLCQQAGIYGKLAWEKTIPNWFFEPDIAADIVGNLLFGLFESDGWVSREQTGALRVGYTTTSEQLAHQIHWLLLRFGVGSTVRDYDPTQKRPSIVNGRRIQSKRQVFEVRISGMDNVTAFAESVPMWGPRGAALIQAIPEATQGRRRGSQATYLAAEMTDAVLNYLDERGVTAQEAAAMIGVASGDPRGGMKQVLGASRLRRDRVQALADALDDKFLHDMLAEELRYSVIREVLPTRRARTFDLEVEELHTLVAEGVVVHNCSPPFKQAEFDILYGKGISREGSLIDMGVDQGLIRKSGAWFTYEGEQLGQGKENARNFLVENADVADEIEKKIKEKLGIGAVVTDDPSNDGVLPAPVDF

CAAX prenyl protease 2 [15] = biological target: T9, CAAX prenyl protease 2 (Saccharomyces cerevisiae S288c, UniProt Q03530); assay type: biochemical
T9 sequence (Q03530 whole entry): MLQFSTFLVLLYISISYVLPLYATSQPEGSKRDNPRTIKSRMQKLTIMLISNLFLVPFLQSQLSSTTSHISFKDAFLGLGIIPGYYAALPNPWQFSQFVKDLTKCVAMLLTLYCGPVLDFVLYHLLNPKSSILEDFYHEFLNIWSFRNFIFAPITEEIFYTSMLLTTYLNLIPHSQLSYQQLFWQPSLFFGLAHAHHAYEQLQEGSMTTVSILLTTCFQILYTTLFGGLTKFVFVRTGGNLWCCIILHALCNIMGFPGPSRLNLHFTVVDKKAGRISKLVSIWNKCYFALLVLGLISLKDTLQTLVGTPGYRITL

SUMO E1/E2 = SUMO E1/E2 (Homo sapiens, UniProt P63279+Q9UBE0+Q9UBT2); test: SAR analysis of SUMOylation using HTRF in an in-Vitro dose response assay. [Related pubchem assays (depositor defined):AID2006, AID2011, AID2018, AID2069, AID2658]; assay type: functional
Sequence of SUMO E1/E2 (Q9UBE0 whole entry): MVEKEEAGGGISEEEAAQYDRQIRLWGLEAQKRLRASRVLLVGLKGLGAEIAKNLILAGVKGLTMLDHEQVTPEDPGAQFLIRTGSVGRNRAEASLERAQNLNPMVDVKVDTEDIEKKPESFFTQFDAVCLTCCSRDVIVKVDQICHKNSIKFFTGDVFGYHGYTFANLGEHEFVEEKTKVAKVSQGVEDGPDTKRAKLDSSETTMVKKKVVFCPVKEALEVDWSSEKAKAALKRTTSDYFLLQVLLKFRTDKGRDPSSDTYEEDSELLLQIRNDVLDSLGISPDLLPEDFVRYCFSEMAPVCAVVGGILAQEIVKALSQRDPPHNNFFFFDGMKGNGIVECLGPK
Sequence of SUMO E1/E2 (Q9UBT2 whole entry): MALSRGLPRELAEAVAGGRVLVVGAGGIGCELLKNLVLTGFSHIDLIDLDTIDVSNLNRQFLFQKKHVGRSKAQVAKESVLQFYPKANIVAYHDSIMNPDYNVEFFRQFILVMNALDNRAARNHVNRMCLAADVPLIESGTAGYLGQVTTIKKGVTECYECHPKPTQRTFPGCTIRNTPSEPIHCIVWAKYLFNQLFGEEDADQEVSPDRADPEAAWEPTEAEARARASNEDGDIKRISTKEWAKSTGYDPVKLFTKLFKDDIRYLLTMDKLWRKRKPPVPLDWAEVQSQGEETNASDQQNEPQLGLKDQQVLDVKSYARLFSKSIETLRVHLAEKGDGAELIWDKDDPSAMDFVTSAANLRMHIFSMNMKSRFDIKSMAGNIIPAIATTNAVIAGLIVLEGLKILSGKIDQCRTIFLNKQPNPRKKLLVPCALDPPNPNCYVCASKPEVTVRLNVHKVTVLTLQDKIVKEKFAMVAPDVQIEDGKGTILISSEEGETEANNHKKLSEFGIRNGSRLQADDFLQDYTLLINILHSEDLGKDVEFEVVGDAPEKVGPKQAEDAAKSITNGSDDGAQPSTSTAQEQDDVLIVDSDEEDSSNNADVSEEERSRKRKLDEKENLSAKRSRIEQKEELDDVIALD
Sequence of SUMO E1/E2 (P63279 whole entry): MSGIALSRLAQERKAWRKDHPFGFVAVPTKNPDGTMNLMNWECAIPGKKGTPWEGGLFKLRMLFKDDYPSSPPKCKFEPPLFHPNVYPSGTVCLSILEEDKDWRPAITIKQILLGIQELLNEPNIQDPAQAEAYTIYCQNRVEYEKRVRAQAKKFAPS

T4 sequence (Q9Y2T6 whole entry): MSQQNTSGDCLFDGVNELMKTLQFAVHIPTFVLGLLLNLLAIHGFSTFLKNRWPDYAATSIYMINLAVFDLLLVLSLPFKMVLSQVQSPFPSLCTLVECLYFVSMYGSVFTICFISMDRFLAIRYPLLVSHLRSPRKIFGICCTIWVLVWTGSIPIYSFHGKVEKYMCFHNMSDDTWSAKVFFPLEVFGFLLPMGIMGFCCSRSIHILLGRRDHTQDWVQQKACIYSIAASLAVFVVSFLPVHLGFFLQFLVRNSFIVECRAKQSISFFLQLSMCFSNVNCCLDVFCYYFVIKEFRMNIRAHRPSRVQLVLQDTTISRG
T3 sequence (Q9HC97 whole entry): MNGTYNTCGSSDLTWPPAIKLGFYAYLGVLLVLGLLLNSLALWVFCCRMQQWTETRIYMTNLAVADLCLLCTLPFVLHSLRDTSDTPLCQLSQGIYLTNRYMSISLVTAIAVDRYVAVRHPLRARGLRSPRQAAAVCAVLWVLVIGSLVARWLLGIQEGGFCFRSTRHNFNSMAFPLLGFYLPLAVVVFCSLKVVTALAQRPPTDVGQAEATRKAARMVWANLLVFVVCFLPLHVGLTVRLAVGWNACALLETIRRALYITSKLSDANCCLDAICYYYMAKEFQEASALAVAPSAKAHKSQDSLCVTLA
Sequence of Trypsin (P00761 whole entry): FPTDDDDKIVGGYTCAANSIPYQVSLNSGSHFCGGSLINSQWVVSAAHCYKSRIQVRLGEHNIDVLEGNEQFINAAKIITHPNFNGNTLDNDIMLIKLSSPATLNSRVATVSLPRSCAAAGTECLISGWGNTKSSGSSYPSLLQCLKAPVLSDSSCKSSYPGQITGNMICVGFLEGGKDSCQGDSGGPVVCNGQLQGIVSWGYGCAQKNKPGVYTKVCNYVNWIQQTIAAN
Sequence of CAAX prenyl protease 1 (P47154 whole entry): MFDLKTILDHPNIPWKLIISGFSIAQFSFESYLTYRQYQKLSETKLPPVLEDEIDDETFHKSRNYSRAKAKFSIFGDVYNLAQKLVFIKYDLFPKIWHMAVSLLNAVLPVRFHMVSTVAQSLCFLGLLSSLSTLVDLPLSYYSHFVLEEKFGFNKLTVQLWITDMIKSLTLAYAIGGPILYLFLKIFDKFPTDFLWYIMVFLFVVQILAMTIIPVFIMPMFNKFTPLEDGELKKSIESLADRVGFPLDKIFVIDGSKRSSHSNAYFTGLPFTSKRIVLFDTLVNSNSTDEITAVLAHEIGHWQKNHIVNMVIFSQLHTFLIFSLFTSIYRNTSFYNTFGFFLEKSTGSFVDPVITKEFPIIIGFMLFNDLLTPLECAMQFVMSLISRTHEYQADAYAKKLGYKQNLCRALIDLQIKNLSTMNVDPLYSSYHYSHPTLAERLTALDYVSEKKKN
Sequence of Tyrosine-protein phosphatase non-receptor type 12 (Q05209 whole entry): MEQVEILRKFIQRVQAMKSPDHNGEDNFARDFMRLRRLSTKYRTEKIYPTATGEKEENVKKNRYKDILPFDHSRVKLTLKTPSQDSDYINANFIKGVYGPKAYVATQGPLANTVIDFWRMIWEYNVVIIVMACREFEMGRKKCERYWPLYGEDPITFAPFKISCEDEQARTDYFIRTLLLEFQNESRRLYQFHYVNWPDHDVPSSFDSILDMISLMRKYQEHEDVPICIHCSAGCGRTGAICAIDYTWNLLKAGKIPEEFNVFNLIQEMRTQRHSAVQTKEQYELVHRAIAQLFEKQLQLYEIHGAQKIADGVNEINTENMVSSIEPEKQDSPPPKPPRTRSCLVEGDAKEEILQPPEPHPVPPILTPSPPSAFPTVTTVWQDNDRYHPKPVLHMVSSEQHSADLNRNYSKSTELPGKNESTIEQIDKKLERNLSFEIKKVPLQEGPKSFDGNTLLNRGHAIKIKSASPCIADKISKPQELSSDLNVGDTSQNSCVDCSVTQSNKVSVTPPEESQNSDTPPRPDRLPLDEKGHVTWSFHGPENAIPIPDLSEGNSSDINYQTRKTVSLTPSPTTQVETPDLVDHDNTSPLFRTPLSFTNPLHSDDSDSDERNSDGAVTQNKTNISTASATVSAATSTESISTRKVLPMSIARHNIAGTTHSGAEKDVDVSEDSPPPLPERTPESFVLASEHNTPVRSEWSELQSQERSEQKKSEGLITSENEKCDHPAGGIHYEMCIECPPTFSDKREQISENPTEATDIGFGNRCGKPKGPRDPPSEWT

CCOC(=O)c1ccccc1NC(=O)CSc1ccc(-c2ccccn2)nn1
EC50 [1]: 11.7 µM (active)
EC50 [2]: > 120 µM (not active)
AC50 [3]: 62.6 µM (active)
EC50 [4]: 10.8 µM (active)
IC50 (H9c2): 5.14 µM (active)

Cc1ccc(/C=C2\SC(=S)N(CCCC(=O)Nc3cccc(C(=O)O)c3)C2=O)cc1
IC50 [5]: 15.9 µM (active)
IC50 [6]: 2.79 µM (active)
IC50 [7]: 39 µM (active)
IC50 [8]: 30.2 µM (active)
IC50 [9]: < 0.5 µM (active)
IC50 [10]: 1.39 µM (active)
EC50 [11]: 1.45 µM (active)
IC50 [12]: > 32 µM (inactive)

CC(C)C(=O)N1CCN(c2nc(-c3ccccc3)c3c(c2C#N)CCCC3)CC1
AC50 [13]: 7.76 µM (active)
IC50 (Coagulation factor XII): > 50 µM (inactive)
AC50 (CAAX prenyl protease 1): 6.09 µM (active)
AC50 (Trypsin): 1.74 µM (active)
AC50 (CAAX prenyl protease 2 [14]): 7.27 µM (active)
EC50 (Protein RecA): 38.4 µM (active)
AC50 (CAAX prenyl protease 2 [15]): 14.4 µM (active)

O=S(=O)(Nc1ccccc1F)c1ccc2c(c1)C1C=CCC1C(c1ccc(F)cc1)N2 (stereo unspecified)
IC50 (SUMO E1/E2): > 100 µM (inactive)

— ChEMBL document CHEMBL1201862, “PubChem BioAssay data set” (2004)
